Experimental data as given in patent US20230321043A1, “COMPOUNDS HAVING PSEUDOMONAS ANTI-BIOFILM PROPERTIES” (Københavns Universitet, priority 2020, published 2023).

Tests used:
Staphylococcus aureus = assay: biofilm formation / dispersal, host range; type: cell-based; details: data not shown
Escherichia coli = assay: biofilm formation / dispersal, host range; type: cell-based; details: data not shown
wt P. aeruginosa biofilm = assay: dispersal of 8 hour old biofilm, crystal violet staining; type: cell-based, Pseudomonas aeruginosa
Protocol: Using a 96 well microtiter tray format, a 20 hour old culture of wt P. aeruginosa was diluted 1000 fold into 100 μL ABtrace media aliquots supplemented with 0.2% glucose, 0.5% Cas amino acids and 1 μM FeCl3. The resulting microtiter trays were sealed with an air permeable lid and the biofilm cultures were incubated at 37° C. on a rotary shaker at 160 RPM.
After this, the culture supernatants were discarded and the remaining biomass was stained with crystal violet (Groizeleau et al. 2016). Finally, the amount of Crystal violet bound to the biofilm present in each well was plotted as a function of H6-335-P1, H6-335, H6-335-SAR compound 26 and H6-335- SAR compound 25 in the following concentrations: 100 μM, 50 μM, 25 μM, 12 μM or 0 μM (FIG. 4D). Means and standard deviations (bars) in FIG. 4D represents 5 biological replicates (n=5)

[1] = tested on: c-di-GMP level of P. aeruginosa ΔwspFΔpelΔpsl/pCdrA-gfp; assay: microbe, parasite or virus in culture; type: cell-based, Pseudomonas aeruginosa
Protocol: The ΔwspF mutant overproduces c-di-GMP and the ΔpelΔpsl mutations renders the bacteria deficient in exopolysaccharide production, which keeps the growing bacteria in the planktonic mode.
The reduction of total cellular c-di-GMP level was determined as follows. To evaluate the impact of the various compounds on the c-di-GMP level of P. aeruginosa ΔwspFΔpelΔpsl/pCdrA-gfp, 20 hour old cultures of the strain were diluted 100 fold in microtiter plate wells (Nunc) containing […] aliquots of ABTrace medium supplemented with 0.2% glucose, 0.5% casamino acids, 60 μg/ml gentamicin, 1 μM FeCl3, 1% DMSO, and concentrations of compounds as indicated.
Subsequently the microtiter plates were incubated at 37° C. and 440 RPM in a TECAN reader (Infinite F200 PRO), and corresponding values of cell density (OD600) and GFP fluorescence were measured every 20 minutes for 24 hours. The reduction values indicated in the tables are calculated as fluorescence values divided by optical density at a time point where this value reached a plateau.
The resulting microtiter trays were incubated at 37° C. at 440 RPM in a TECAN reader (Infinite F200 PRO), and corresponding values of GFP flourescence (FU) and cell density (OD600) were measured every 20 minutes for 24 hours. […] In FIG. 3A and 3B, means and standard deviations (bars) represents 3 biological replicates (n=3).

[2] = tested on: total cellular c-di-GMP content of P. aeruginosa ΔwspF,Δpsl,Δpel; assay: HPLC coupled tandem-MS quantification of c-di-GMP extracts; type: cell-based, Pseudomonas aeruginosa; details: 100 μM, 8 hours of growth; pmol c-di-GMP per mg protein, FIG. 1
Protocol: Specifically, a 20 h old culture of P. aeruginosa ΔwspF,Δpsl,Δpel (Rybtke et al 2012) was diluted 100 fold into 25 mL aliquots of ABtrace media supplemented with 0.5% Cas amino acids, 0.2% glucose, 60 μg/mL of gentamicin, 1 μM FeCl3, 0.05% DMSO and either 100 μM H6-335-P1, 100 μM H6-335 or no compound as reference control. Acting as a positive control for low total cellular c-di-GMP content, a 20 hour old culture of strain P. aeruginosa ΔwspF,Δpsl,Δpel carrying plasmid pYhj::Gm (encoding a constitutively expressed YhjH phosphodiesterase) was also diluted 100 fold into 25 mL of ABtrace medium supplemented with 0.5% Cas amino acids, 0.2% glucose, 60 μg/mL of gentamicin, 1 μM FeCl3 and 0.05% DMSO. The 4 cultures were placed on a rotary shaker and following 8 hours of growth at 37° C. and 200 RPM culture samples for c-di-GMP extraction and protein quantification was collected from each of the 4 different cultures. C-di-GMP extracts were prepared and subsequently quantified by HPLC coupled tandem-MS analysis as previously described (Groizeleau et al., 2016), while protein quantification was carried out using the Pierce 660 nm Protein Assay (Thermo Scientific Cat. No 22660) according to the manufacturer's protocol. […]

Klebsiella pneumoniea = assay: biofilm formation / dispersal, host range; type: cell-based; details: data not shown
Burkholderia cenocepacia = assay: biofilm formation / dispersal, host range; type: cell-based; details: data not shown
Description: (§1) To determine the host range of H6-335-P1, the inventors conducted a Blast search for analogs of the P. aeruginosa BifA phosphodiesterase protein encoded by gene PA4367 (bifA).

Acinetobacter baumanii = assay: biofilm formation / dispersal, host range; type: cell-based; details: data not shown
Description: as §1

Enterobacter cloacae = assay: biofilm formation / dispersal, host range; type: cell-based; details: data not shown
Description: as §1

[3] = tested on: Stenotrophomonas maltophilia; assay: biofilm formation / dispersal, host range; type: cell-based; details: data not shown
Description: as §1

[4] = tested on: P. aeruginosa ΔbifAΔwspF mutant; assay: biofilm formation of bifA knockout, crystal violet; type: cell-based, Pseudomonas aeruginosa; details: 100 μM, 16 hours of growth, FIG. 6B left
Protocol: Biofilm quantification was done using a 96 well microtiter platform where 20 hour old cultures of the deletion mutant of P. aeruginosa PA01 (ΔwspF) and its isogenic bifA deletion mutant (ΔbifA-) were diluted […] into 100 μL ABTrace media aliquots (Pamp and Tolker-Nielsen, 2007) supplemented with 0.2% glucose, 0.5% casa amino acids, 1 μM FeCl3, 0.2% DMSO and either 100 μM or 0 μM of H6-335-P1. The resulting cultures were incubated at 37° C. and 160 RPM, and following 16 hours of growth the amounts of biofilm were quantified by the use of crystal violet staining.

## N=C1NN=C(N)/C1=N/Nc1ccccc1F [H6-335-P1, 4-[(2-fluorophenyl) hydrazinylidene]pyrazole-3,5-diamine]
Staphylococcus aureus
  biofilm formation of Staphylococcus aureus: failed to reduce biofilm formation
Escherichia coli
  biofilm formation of Escherichia coli: failed to reduce biofilm formation
Wt P. aeruginosa biofilm; 100 μM, within a 2 hours period
  dispersal of an 8 hour old biofilm: 88%
Wt P. aeruginosa biofilm; 12 to 100 μM, two hours of dispersal, FIG. 4D
  rank of biofilm dispersing potency among the four tested compounds: most potent biofilm dispersing compound
[1]; 100 μM, compared with control cultures with 1% DMSO
  reduction of the fluorescence output of the c-di-GMP monitor cultures: 80%
[1]; Pseudomonas aeruginosa, read-out: Reduction of total cellular c-di-GMP level
  inhibition at 100 µM: 80%
[2]
  reduction of total cellular c-di-GMP content: 90%
Klebsiella pneumoniea
  biofilm formation of Klebsiella pneumoniea: failed to reduce biofilm formation
Burkholderia cenocepacia
  biofilm formation of Burkholderia cenocepacia: failed to reduce biofilm formation
Acinetobacter baumanii
  biofilm formation of Acinetobacter baumanii: failed to reduce biofilm formation
Enterobacter cloacae
  biofilm formation of Enterobacter cloacae: failed to reduce biofilm formation
[3]
  biofilm formation of Stenotrophomonas maltophilia: failed to reduce biofilm formation
[4]
  response of biofilm formation of ΔbifAΔwspF mutant: no longer responded to the presence of H6-335-P1
